Experimental data from patent US8927717B1, “Thiochromeno[2,3-c]quinolin-12-one derivatives, preparation method and application thereof” (National Defense Medical Center, priority 2014, dated 2015).

What was measured:
[1] = test system: 60 cancer cell lines; test: NCI 60-cell screen, SRB, whole panel (mean, delta, range); assay type: cell-based; settings: 10^−5 molar, 48 hours, SRB; for Growth percent, Delta: delta over the cell panel; for Growth percent, Range: range over the cell panel; for Growth percent, Mean: mean over the cell panel
[2] = test system: HOP-62; assay type: cell-based; settings: Non-small cell lung cancer; 10^−5 molar; 48 hours; SRB
[3] = test system: SN12C; assay type: cell-based; settings: Renal cancer; 10^−5 molar; 48 hours; SRB
[4] = test system: MOLT-4; assay type: cell-based; settings: Leukemia; 10^−5 molar; 48 hours; SRB
[5] = test system: A498; assay type: cell-based; settings: Renal cancer; 10^−5 molar; 48 hours; SRB
[6] = test system: NCI-H522; assay type: cell-based; settings: Non-small cell lung cancer; 10^−5 molar; 48 hours; SRB
[7] = test system: HL-60(TB); assay type: cell-based; settings: Leukemia; 10^−5 molar; 48 hours; SRB
[8] = test system: TK-10; assay type: cell-based; settings: Renal cancer; 10^−5 molar; 48 hours; SRB
[9] = test system: SF-295; assay type: cell-based; settings: CNS cancer; 10^−5 molar; 48 hours; SRB
[10] = test system: K-562; assay type: cell-based; settings: Leukemia; 10^−5 molar; 48 hours; SRB
[11] = test system: PC-3; assay type: cell-based; settings: Prostate cancer; 10^−5 molar; 48 hours; SRB
[12] = test system: NCI/ADR-RES; assay type: cell-based; settings: Ovarian cancer; 10^−5 molar; 48 hours; SRB
[13] = test system: HOP-92; assay type: cell-based; settings: Non-small cell lung cancer; 10^−5 molar; 48 hours; SRB
[14] = test system: MDA-MB-486; assay type: cell-based; settings: Breast cancer; 10^−5 molar; 48 hours; SRB
[15] = test system: M14; assay type: cell-based; settings: Melanoma; 10^−5 molar; 48 hours; SRB
[16] = test system: DU-145; assay type: cell-based; settings: Prostate cancer; 10^−5 molar; 48 hours; SRB
[17] = test system: MCF7; assay type: cell-based; settings: Breast cancer; 10^−5 molar; 48 hours; SRB
[18] = test system: OVCAR-5; assay type: cell-based; settings: Ovarian cancer; 10^−5 molar; 48 hours; SRB
[19] = test system: COLO 205; assay type: cell-based; settings: Colon cancer; 10^−5 molar; 48 hours; SRB
[20] = test system: UO-31; assay type: cell-based; settings: Renal cancer; 10^−5 molar; 48 hours; SRB
[21] = test system: HT29; assay type: cell-based; settings: Colon cancer; 10^−5 molar; 48 hours; SRB
[22] = test system: SF-268; assay type: cell-based; settings: CNS cancer; 10^−5 molar; 48 hours; SRB
[23] = test system: CCRF-CEM; assay type: cell-based; settings: Leukemia; 10^−5 molar; 48 hours; SRB
[24] = test system: CAKI-1; assay type: cell-based; settings: Renal cancer; 10^−5 molar; 48 hours; SRB
[25] = test system: HCT-116; assay type: cell-based; settings: Colon cancer; 10^−5 molar; 48 hours; SRB
[26] = test system: LOX IMVI; assay type: cell-based; settings: Melanoma; 10^−5 molar; 48 hours; SRB
[27] = test system: MDA-MB-231/ATCC; assay type: cell-based; settings: Breast cancer; 10^−5 molar; 48 hours; SRB
[28] = test system: SNB-75; assay type: cell-based; settings: CNS cancer; 10^−5 molar; 48 hours; SRB
[29] = test system: RPMI-8226; assay type: cell-based; settings: Leukemia; 10^−5 molar; 48 hours; SRB
[30] = test system: A549/ATCC; assay type: cell-based; settings: Non-small cell lung cancer; 10^−5 molar; 48 hours; SRB
[31] = test system: SNB-19; assay type: cell-based; settings: CNS cancer; 10^−5 molar; 48 hours; SRB
[32] = test system: UACC-62; assay type: cell-based; settings: Melanoma; 10^−5 molar; 48 hours; SRB
[33] = test system: HS 578T; assay type: cell-based; settings: Breast cancer; 10^−5 molar; 48 hours; SRB
[34] = test system: SW-620; assay type: cell-based; settings: Colon cancer; 10^−5 molar; 48 hours; SRB
[35] = test system: T-47D; assay type: cell-based; settings: Breast cancer; 10^−5 molar; 48 hours; SRB
[36] = test system: UACC-257; assay type: cell-based; settings: Melanoma; 10^−5 molar; 48 hours; SRB
[37] = test system: MALME-3M; assay type: cell-based; settings: Melanoma; 10^−5 molar; 48 hours; SRB
[38] = test system: HCT-15; assay type: cell-based; settings: Colon cancer; 10^−5 molar; 48 hours; SRB
[39] = test system: IGROV1; assay type: cell-based; settings: Ovarian cancer; 10^−5 molar; 48 hours; SRB
[40] = test system: RXF 393; assay type: cell-based; settings: Renal cancer; 10^−5 molar; 48 hours; SRB
[41] = test system: SR; assay type: cell-based; settings: Leukemia; 10^−5 molar; 48 hours; SRB
[42] = test system: SK-OV-3; assay type: cell-based; settings: Ovarian cancer; 10^−5 molar; 48 hours; SRB
[43] = test system: U251; assay type: cell-based; settings: CNS cancer; 10^−5 molar; 48 hours; SRB
[44] = test system: SK-MEL-5; assay type: cell-based; settings: Melanoma; 10^−5 molar; 48 hours; SRB
[45] = test system: ACHN; assay type: cell-based; settings: Renal cancer; 10^−5 molar; 48 hours; SRB
[46] = test system: 786-0; assay type: cell-based; settings: Renal cancer; 10^−5 molar; 48 hours; SRB
[47] = test system: HCC-2998; assay type: cell-based; settings: Colon cancer; 10^−5 molar; 48 hours; SRB
[48] = test system: NCI-H460; assay type: cell-based; settings: Non-small cell lung cancer; 10^−5 molar; 48 hours; SRB
[49] = test system: OVCAR-4; assay type: cell-based; settings: Ovarian cancer; 10^−5 molar; 48 hours; SRB
[50] = test system: SK-MEL-28; assay type: cell-based; settings: Melanoma; 10^−5 molar; 48 hours; SRB
[51] = test system: NCI-H226; assay type: cell-based; settings: Non-small cell lung cancer; 10^−5 molar; 48 hours; SRB
[52] = test system: BT-549; assay type: cell-based; settings: Breast cancer; 10^−5 molar; 48 hours; SRB
[53] = test system: MDA-MB-435; assay type: cell-based; settings: Melanoma; 10^−5 molar; 48 hours; SRB
[54] = test system: SK-MEL-2; assay type: cell-based; settings: Melanoma; 10^−5 molar; 48 hours; SRB
[55] = test system: KM12; test: cells; assay type: cell-based; settings: Colon cancer; 10^−5 molar; 48 hours; SRB
[56] = test system: NCI-H23; assay type: cell-based; settings: Non-small cell lung cancer; 10^−5 molar; 48 hours; SRB
[57] = test system: OVCAR-8; assay type: cell-based; settings: Ovarian cancer; 10^−5 molar; 48 hours; SRB
[58] = test system: SF-539; assay type: cell-based; settings: CNS cancer; 10^−5 molar; 48 hours; SRB

SMILES: COc1nc2ccccc2c2c(=O)c3cc(Cl)ccc3sc12 [Compound 5, 10-Chloro-6-methoxy-12H-thiochromeno[2,3-c]quinolin-12-one]
- Growth percent, Delta [1]: 39.82%
- Growth percent, Range [1]: 61.02%
- melting point: 227 to 228 °C
- Growth percent HOP-62 [2]: 96.64%

SMILES: CNc1nc2ccccc2c2c(=O)c3cc(Cl)ccc3sc12 [Compound N1, 10-Chloro-6-methylamino-12H-thiochromeno[2,3-c]quinolin-12-one]
- Growth percent SN12C [3]: 92.52%
- Growth percent MOLT-4 [4]: 86.86%
- Growth percent A498 [5]: 82.89%
- Growth percent NCI-H522 [6]: 97.00%
- Growth percent HL-60(TB) [7]: 131.66%
- Growth percent TK-10 [8]: 81.21%
- Growth percent SF-295 [9]: 89.04%
- Growth percent K-562 [10]: 40.69%
- Growth percent PC-3 [11]: 61.41%
- Growth percent NCI/ADR-RES [12]: 70.95%
- Growth percent HOP-92 [13]: 59.15%
- Growth percent MDA-MB-486 [14]: 8.75%
- Growth percent, Delta [1]: 66.31%
- Growth percent, Mean [1]: 75.06%
- Growth percent, Range [1]: 122.91%
- Growth percent M14 [15]: 105.85%
- Growth percent DU-145 [16]: 80.29%
- Growth percent MCF7 (Table 2: MCF) [17]: 23.26%
- Growth percent OVCAR-5 [18]: 86.91%
- Growth percent COLO 205 [19]: 94.82%
- Growth percent UO-31 [20]: 65.34%
- Growth percent HT29 [21]: 114.79%
- Growth percent SF-268 [22]: 70.58%
- Growth percent CCRF-CEM [23]: 79.77%
- Growth percent CAKI-1 [24]: 68.09%
- Growth percent HCT-116 [25]: 32.49%
- Growth percent LOX IMVI [26]: 44.95%
- Growth percent MDA-MB-231/ATCC [27]: 66.58%
- Growth percent SNB-75 [28]: 67.29%
- Growth percent RPMI-8226 [29]: 93.10%
- Growth percent A549/ATCC [30]: 51.68%
- Growth percent SNB-19 [31]: 96.48%
- Growth percent UACC-62 [32]: 77.66%
- Growth percent HS 578T [33]: 82.63%
- Growth percent SW-620 [34]: 84.37%
- Growth percent T-47D [35]: 42.13%
- Growth percent UACC-257 [36]: 91.23%
- Growth percent MALME-3M [37]: 72.46%
- Growth percent HCT-15 [38]: 68.73%
- Growth percent IGROV1 [39]: 67.97%
- Growth percent RXF 393 [40]: 84.52%
- Growth percent SR [41]: 47.76%
- Growth percent SK-OV-3 [42]: 88.67%
- Growth percent U251 [43]: 85.19%
- melting point: 237 to 238 °C
- Growth percent SK-MEL-5 [44]: 80.13%
- Growth percent ACHN [45]: 84.47%
- Growth percent HOP-62 [2]: 79.39%
- Growth percent 786-0 [46]: 95.51%
- Growth percent HCC-2998 [47]: 105.34%
- Growth percent NCI-H460 [48]: 73.84%
- Growth percent OVCAR-4 [49]: 71.33%
- Growth percent SK-MEL-28 [50]: 83.41%
- Growth percent NCI-H226 [51]: 73.53%
- Growth percent BT-549 [52]: 108.49%
- Growth percent MDA-MB-435 [53]: 84.97%
- Growth percent SK-MEL-2 [54]: 110.10%
- Growth percent KM12 [55]: 68.75%
- Growth percent NCI-H23 [56]: 44.39%
- Growth percent OVCAR-8 [57]: 31.61%
- Growth percent SF-539 [58]: 59.86%

SMILES: CCC(CC)Nc1nc2ccccc2c2c(=O)c3cc(Cl)ccc3sc12 [Compound N6, 10-Chloro-6-(pentan-3-ylamino)-12H-thiochromeno[2,3-c]quinolin-12-one]
- Growth percent SN12C [3]: 94.28%
- Growth percent MOLT-4 [4]: 103.08%
- Growth percent A498 [5]: 103.44%
- Growth percent NCI-H522 [6]: 99.02%
- Growth percent HL-60(TB) [7]: 141.93%
- Growth percent TK-10 [8]: 138.89%
- Growth percent SF-295 [9]: 104.18%
- Growth percent K-562 [10]: 95.25%
- Growth percent PC-3 [11]: 84.63%
- Growth percent NCI/ADR-RES [12]: 101.32%
- Growth percent HOP-92 [13]: 83.26%
- Growth percent MDA-MB-486 [14]: 95.79%
- Growth percent, Delta [1]: 29.82%
- Growth percent, Mean [1]: 96.94%
- Growth percent, Range [1]: 74.81%
- Growth percent M14 [15]: 107.34%
- Growth percent DU-145 [16]: 109.54%
- Growth percent MCF7 (Table 2: MCF) [17]: 67.12%
- Growth percent OVCAR-5 [18]: 99.96%
- Growth percent COLO 205 [19]: 107.68%
- Growth percent UO-31 [20]: 78.57%
- Growth percent HT29 [21]: 116.70%
- Growth percent SF-268 [22]: 102.86%
- Growth percent CCRF-CEM [23]: 93.72%
- Growth percent CAKI-1 [24]: 73.26%
- Growth percent HCT-116 [25]: 99.01%
- Growth percent LOX IMVI [26]: 89.35%
- Growth percent MDA-MB-231/ATCC [27]: 77.83%
- Growth percent SNB-75 [28]: 73.24%
- Growth percent RPMI-8226 [29]: 108.60%
- Growth percent A549/ATCC [30]: 91.04%
- Growth percent SNB-19 [31]: 99.01%
- Growth percent UACC-62 [32]: 83.74%
- Growth percent HS 578T [33]: 89.81%
- Growth percent SW-620 [34]: 104.94%
- Growth percent T-47D [35]: 73.62%
- Growth percent UACC-257 [36]: 99.44%
- Growth percent MALME-3M [37]: 92.36%
- Growth percent HCT-15 [38]: 95.35%
- Growth percent IGROV1 [39]: 80.40%
- Growth percent RXF 393 [40]: 93.23%
- Growth percent SR [41]: 104.59%
- Growth percent SK-OV-3 [42]: 99.71%
- Growth percent U251 [43]: 97.05%
- melting point: 160 to 161 °C
- Growth percent SK-MEL-5 [44]: 90.08%
- Growth percent ACHN [45]: 84.92%
- Growth percent HOP-62 [2]: 95.32%
- Growth percent 786-0 [46]: 108.84%
- Growth percent HCC-2998 [47]: 119.79%
- Growth percent NCI-H460 [48]: 99.42%
- Growth percent OVCAR-4 [49]: 98.77%
- Growth percent SK-MEL-28 [50]: 98.40%
- Growth percent NCI-H226 [51]: 79.22%
- Growth percent BT-549 [52]: 109.76%
- Growth percent MDA-MB-435 [53]: 108.13%
- Growth percent SK-MEL-2 [54]: 104.97%
- Growth percent KM12 [55]: 94.04%
- Growth percent NCI-H23 [56]: 94.17%
- Growth percent OVCAR-8 [57]: 95.31%
- Growth percent SF-539 [58]: 95.09%
